Earlier results, collected in publication PMC10125900 (The Journal of General Physiology, 2023).

What was measured:
GluN1/2A–D receptors = details: read-out: glycine potency at GluN1, EC50; ref Hansen et al., 2021
GluN1^FA+TL/3A = details: read-out: glycine potency at GluN3A, EC50; ref Kvist et al., 2013a
GluN3A ABD = details: ref Furukawa and Gouaux, 2003; Yao and Mayer, 2006

Q: For `NCC(=O)O` [glycine], which EC50 (GluN1/2A–D receptors) is on record?
A: 0.1 to 1 µM

Q: What about the EC50 (GluN1^FA+TL/3A) of the same molecule?
A: 60 µM

Q: What about the “higher affinity for isolated GluN3A ABD compared to isolated GluN1 ABD” value (GluN3A ABD) of the same molecule?
A: 650 fold
